Some test systems named below: OVCAR-8 ovarian; SK-MEL-28 melanoma; HCT-15 colon; IGROV1 ovarian; SK-OV-3 ovarian; SF-268 CNS; SR leukemia; MDA-MB-231 breast; MALME-3M melanoma; SF-295 CNS.
Holding throughout (assay): inhibition of tumour cell growth, NCI panel, 48 h

The structures appear in SMILES notation.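 Tested at 5 concentrations; 48 h exposure; 96-well plates; endpoints linearly interpolated, else capped at highest concentration. GI50 is the concentration that inhibits growth by half. TGI: concentration producing complete growth inhibition.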 A value given as a limit tells only on which side of the number the result lay.

The text below walks through data of PubChem BioAssay (NCI).

Consider `C/C(=N\NC(=S)N1CCCC1)c1ccccn1`, for which the GI50 with OVCAR-8 ovarian was below 0.01 µM; in the test with SK-MEL-28 melanoma it was 320 nM; with HCT-15 colon, below 0.01 µM; in the test with IGROV1 ovarian, below 0.01 µM; with SK-OV-3 ovarian, 0.0232 µM; in the test with SF-268 CNS, 0.0261 µM. In addition, the GI50 is below 10 nM in the test on SR leukemia, below 0.0348 µM in the test on MDA-MB-231 breast, below 0.0349 µM with MALME-3M melanoma and below 10 nM in the test with SF-295 CNS. Besides, the TGI in the test on OVCAR-8 ovarian is 12.4 µM; in the test on SK-MEL-28 melanoma it was 13.7 µM; in the test with HCT-15 colon it was 18.9 µM; with IGROV1 ovarian it was 5.09 µM; in the test with SK-OV-3 ovarian, 11.2 µM; in the test on SF-268 CNS, 12.7 µM. The TGI in the test with SR leukemia is above 49.9 µM; in the test with MDA-MB-231 breast it was 16.2 µM; in the test on MALME-3M melanoma it was 1.64 µM; in the test on SF-295 CNS, 5.9 µM.

As for `COc1ccc2c(c1)[n+](=O)c(/C=C/C(=O)c1cc(OC)c(OC)c(OC)c1)c(C)n2[O-]`, the GI50 in the test with OVCAR-8 ovarian is 5.3 µM; in the test on SK-MEL-28 melanoma, 12300 nM; with HCT-15 colon, 3.79 µM; in the test on IGROV1 ovarian it was 18.2 µM; with SK-OV-3 ovarian, 23.9 µM; in the test on SF-268 CNS, 6.11 µM. The GI50 is 644 nM in the test with SR leukemia, 12.6 µM with MDA-MB-231 breast, 17 µM in the test on MALME-3M melanoma and 44800 nM in the test with SF-295 CNS. Besides, the TGI in the test with OVCAR-8 ovarian is above 100 µM; in the test on SK-MEL-28 melanoma it was 50.9 µM; in the test with HCT-15 colon, 23.2 µM; with IGROV1 ovarian, above 100 µM; in the test with SK-OV-3 ovarian, 92.8 µM; with SF-268 CNS, 45.6 µM. In addition, the TGI with SR leukemia is 2.41 µM; with MDA-MB-231 breast, 88.4 µM; with MALME-3M melanoma, above 100 µM; in the test with SF-295 CNS, above 100 µM.

For the molecule `COc1ccc(C(=O)c2ccccc2)c(O)c1`, the GI50 is above 100 µM in the test with OVCAR-8 ovarian; above 100000 nM in the test on SK-MEL-28 melanoma; 80.7 µM in the test with HCT-15 colon; above 100 µM in the test with IGROV1 ovarian; above 100 µM in the test with SK-OV-3 ovarian; 55.2 µM in the test on SF-268 CNS. For the same molecule, the GI50 with SR leukemia was 45700 nM; with MDA-MB-231 breast, above 100 µM; with MALME-3M melanoma it was 61.4 µM; in the test on SF-295 CNS, 36000 nM. The TGI in the test on OVCAR-8 ovarian, in the test on SK-MEL-28 melanoma, with HCT-15 colon, in the test with IGROV1 ovarian, in the test on SK-OV-3 ovarian and in the test on SF-268 CNS was above 100 µM in each case. For the same molecule, the TGI in the test on SR leukemia, in the test on MDA-MB-231 breast, in the test on MALME-3M melanoma and in the test on SF-295 CNS was above 100 µM in each case.

As for `COc1ccc(/C=C(\C#N)c2cc(OC)c(OC)c(OC)c2)cc1`, the GI50 in the test with OVCAR-8 ovarian is 0.0293 µM; in the test on SK-MEL-28 melanoma, 63.4 nM; with HCT-15 colon, 0.0359 µM; in the test on IGROV1 ovarian, 0.0432 µM; in the test with SK-OV-3 ovarian it was below 0.0138 µM; in the test on SF-268 CNS, 0.0481 µM. The GI50 in the test on SR leukemia is below 10 nM; in the test on MDA-MB-231 breast it was 0.0483 µM; with MALME-3M melanoma, 21.3 µM; in the test on SF-295 CNS, below 15.6 nM. The TGI in the test on OVCAR-8 ovarian is above 82.8 µM; in the test on SK-MEL-28 melanoma, above 100 µM; with HCT-15 colon it was above 100 µM; in the test with IGROV1 ovarian, above 100 µM; in the test on SK-OV-3 ovarian it was 0.221 µM; in the test with SF-268 CNS, above 100 µM. For the same molecule, the results for the TGI with MDA-MB-231 breast, in the test on MALME-3M melanoma and in the test with SF-295 CNS were above 100 µM, above 100 µM and 50.7 µM, respectively.

For `CSCc1ncc(-c2ccc(C(F)(F)F)cc2)c(NC2CCCCCC2)n1`, the GI50 in the test with OVCAR-8 ovarian was above 10 µM; in the test on SK-MEL-28 melanoma, above 10000 nM; with HCT-15 colon it was above 10 µM; in the test with IGROV1 ovarian, above 10 µM; with SK-OV-3 ovarian, above 10 µM; in the test on SF-268 CNS it was above 10 µM. Also, the GI50 in the test with SR leukemia was above 10000 nM; in the test on MDA-MB-231 breast it was above 10 µM; with MALME-3M melanoma, above 10 µM; in the test on SF-295 CNS it was above 10000 nM. Further, the TGI in the test on OVCAR-8 ovarian, with SK-MEL-28 melanoma, in the test with HCT-15 colon, in the test with IGROV1 ovarian, in the test on SK-OV-3 ovarian and with SF-268 CNS was above 10 µM each time. In addition, the TGI in the test with SR leukemia, with MDA-MB-231 breast, in the test on MALME-3M melanoma and in the test on SF-295 CNS was above 10 µM each time.

Consider `COc1ccc(N=c2nc3sc4cc(Cl)ccc4n3c(N)c2C#N)cc1`, for which the GI50 with OVCAR-8 ovarian was 5.05 µM; in the test on SK-MEL-28 melanoma, 2920 nM; with HCT-15 colon, 5.59 µM; in the test on IGROV1 ovarian, 3.48 µM; in the test on SK-OV-3 ovarian, 5.9 µM; in the test with SF-268 CNS, 4.29 µM. For the same molecule, the GI50 is 8490 nM with SR leukemia, 3.12 µM in the test on MDA-MB-231 breast, 2.25 µM in the test on MALME-3M melanoma and 2510 nM in the test on SF-295 CNS. For the same molecule, the TGI in the test on OVCAR-8 ovarian is above 100 µM; in the test on SK-MEL-28 melanoma it was 22.9 µM; in the test with HCT-15 colon, above 31.1 µM; in the test on IGROV1 ovarian, above 66.1 µM; in the test with SK-OV-3 ovarian, above 100 µM; with SF-268 CNS, above 100 µM. In addition, the TGI with SR leukemia was above 84.8 µM; with MDA-MB-231 breast, 16.2 µM; with MALME-3M melanoma, 7.42 µM; in the test with SF-295 CNS, 23.1 µM.

On to `CN(C)CCN=c1nc2c(c(N)n1-c1ccccc1)c(=S)n(-c1ccccc1)c(=S)n2-c1ccccc1`, for which the GI50 in the test with OVCAR-8 ovarian is 4.76 µM; in the test with SK-MEL-28 melanoma it was 867 nM; in the test with HCT-15 colon it was 1.17 µM; in the test with IGROV1 ovarian, 8.09 µM; with SK-OV-3 ovarian, 6.96 µM; with SF-268 CNS, 3.34 µM. Also, the GI50 is 1360 nM in the test with SR leukemia, 1.16 µM with MDA-MB-231 breast, 2.04 µM in the test on MALME-3M melanoma and 2310 nM in the test with SF-295 CNS. For the same molecule, the TGI in the test on OVCAR-8 ovarian was found to be 17.6 µM; in the test with SK-MEL-28 melanoma, 2.33 µM; with HCT-15 colon, 3.73 µM; with IGROV1 ovarian it was 23 µM; in the test on SK-OV-3 ovarian, 20.9 µM; in the test with SF-268 CNS it was 15.1 µM. The TGI in the test with SR leukemia was found to be 3.34 µM; in the test with MDA-MB-231 breast, 4.05 µM; with MALME-3M melanoma, 3.93 µM; in the test with SF-295 CNS it was 6.37 µM.

For `CCOC1=C/C(=N\Nc2ccc([N+](=O)[O-])cc2)CCC1`, the TGI in the test with OVCAR-8 ovarian was above 100 µM; in the test with SK-MEL-28 melanoma it was 72.6 µM; in the test on HCT-15 colon, 57.3 µM; in the test on IGROV1 ovarian it was 40.7 µM; in the test with SK-OV-3 ovarian, above 100 µM; in the test with SF-268 CNS, 44.9 µM. The TGI with SR leukemia is above 100 µM; in the test on MDA-MB-231 breast it was 84.6 µM; in the test on MALME-3M melanoma it was above 100 µM; in the test on SF-295 CNS, above 100 µM.
